For assay [1], the target named is Carbonic anhydrase 5A, mitochondrial (Homo sapiens, UniProt P35218).
Assay [2] has as its target Carbonic anhydrase 5B, mitochondrial (Homo sapiens, UniProt Q9Y2D0).

Carbonic anhydrase 5A, mitochondrial, sequence (P35218 whole entry): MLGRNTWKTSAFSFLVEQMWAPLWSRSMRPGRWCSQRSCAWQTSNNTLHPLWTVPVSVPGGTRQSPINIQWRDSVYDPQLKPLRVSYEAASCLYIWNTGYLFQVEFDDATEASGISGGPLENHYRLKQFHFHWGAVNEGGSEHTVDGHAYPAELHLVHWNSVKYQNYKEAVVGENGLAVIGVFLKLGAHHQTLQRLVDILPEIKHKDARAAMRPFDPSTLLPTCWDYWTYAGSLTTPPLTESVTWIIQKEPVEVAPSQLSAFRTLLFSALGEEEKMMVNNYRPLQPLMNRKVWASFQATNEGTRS
Carbonic anhydrase 5B, mitochondrial, sequence (Q9Y2D0 whole entry): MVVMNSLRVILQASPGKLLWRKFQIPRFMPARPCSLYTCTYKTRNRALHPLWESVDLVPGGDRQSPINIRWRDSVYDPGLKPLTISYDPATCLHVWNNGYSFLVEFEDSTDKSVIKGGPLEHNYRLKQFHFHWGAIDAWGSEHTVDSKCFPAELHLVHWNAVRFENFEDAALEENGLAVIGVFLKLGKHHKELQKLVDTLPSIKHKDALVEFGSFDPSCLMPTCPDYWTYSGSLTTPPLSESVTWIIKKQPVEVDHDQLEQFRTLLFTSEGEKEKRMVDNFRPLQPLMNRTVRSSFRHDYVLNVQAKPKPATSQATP

`NNc1ccccc1S(N)(=O)=O`: the Ki (as a rule, a dissociation constant, usually derived from enzyme kinetics or from competition with a known ligand) in assay [1] turned out to be 9.6 µM; in assay [2], 3.4 µM.
Taken in the same sequence, the figures for `Nc1nnc(S(N)(=O)=O)s1` were 2.3 µM and 2.15 µM.
Regarding `Nc1ccc(S(=O)(=O)NCc2ccc(S(N)(=O)=O)cc2)cc1`, the inhibition constant Ki was found to be 0.176 µM in assay [1] and 0.024 µM in assay [2].
`Nc1cc(Cl)c(S(N)(=O)=O)cc1S(N)(=O)=O` came in with a Ki in assay [2] of 6.21 µM.
For `Nc1ccc(S(N)(=O)=O)cc1I`, the figures for the inhibition constant Ki in assay [1] and in assay [2] were 9.4 µM and 3.3 µM, respectively.
Take `Nc1ccc(S(=O)(=O)Nc2nnc(S(N)(=O)=O)s2)cc1`: the Ki in assay [1] was found to be 0.034 µM; in assay [2], 0.03 µM.
Taken in the same sequence, the figures for `NS(=O)(=O)c1nnc(-c2ccccc2Cl)s1` were 0.043 µM and 0.03 µM.
For the molecule `Nc1nccc(Nc2ccc(S(N)(=O)=O)cc2)n1`, the figures for the Ki in assay [1] and in assay [2] were 17 µM and 10.2 µM, respectively.
Taken in the same sequence, the figures for `NS(=O)(=O)c1nc2ccc(O)cc2s1` were 0.054 µM and 0.041 µM.
For the molecule `Nc1ccccc1S(N)(=O)=O`, the Ki in assay [1] was determined as 15.3 µM; in assay [2] it was 9.56 µM.
On the same counts, the results for `Nc1ccc(S(N)(=O)=O)cc1Br` are 7.6 µM and 3.54 µM.
Taken in the same sequence, the figures for `Cn1nc(S(N)(=O)=O)sc1=N` were 2.16 µM and 2.08 µM.
On the same counts, the results for `NS(=O)(=O)c1ccc(CCO)cc1` are 8.7 µM and 7 µM.
Consider `Nc1ccc(S(N)(=O)=O)cc1F`, for which the Ki was 9.3 µM in assay [1] and 4.22 µM in assay [2].
Taken in the same sequence, the figures for `NS(=O)(=O)c1ccc(CO)cc1` were 9.3 µM and 7.45 µM.
On the same counts, the results for `NCCc1ccc(S(N)(=O)=O)cc1` are 42.4 µM and 8.95 µM.
On to `Nc1ccc(S(N)(=O)=O)cc1Cl`, for which the Ki in assay [1] was found to be 7.4 µM; in assay [2], 4.3 µM.
Taken in the same sequence, the figures for `Nc1ccc(S(=O)(=O)NCCc2ccc(S(N)(=O)=O)cc2)cc1` were 0.121 µM and 0.042 µM.
Taken in the same sequence, the figures for `NNc1ccc(S(N)(=O)=O)cc1` were 7.7 µM and 3.5 µM.
Consider `NS(=O)(=O)c1ccc(S(=O)(=O)Nc2cccc3c(Cl)c[nH]c23)cc1`, for which the Ki in assay [1] is 0.079 µM; in assay [2], 0.023 µM.
On to `Nc1cc(C(F)(F)F)c(S(N)(=O)=O)cc1S(N)(=O)=O` [2,4-DISULFAMYLTRIFLUOROMETHYLANILINE], for which the Ki in assay [2] stood at 6.56 µM.
For `CCN[C@H]1CN(CCCOC)S(=O)(=O)c2sc(S(N)(=O)=O)cc21` [BRINZOLAMIDE], the inhibitory constant (Ki) in assay [1] turned out to be 0.05 µM; in assay [2] it was 0.03 µM.
Taken in the same sequence, the figures for `NS(=O)(=O)c1ccc(C(=O)O)cc1` [CARZENIDE] were 2.65 µM and 1.56 µM.
Taken in the same sequence, the figures for `NCc1ccc(S(N)(=O)=O)cc1` [MAFENIDE] were 27.6 µM and 12.3 µM.
Taken in the same sequence, the figures for `Cc1ccc(S(N)(=O)=O)cc1` [P-TOLUENESULFONAMIDE] were 4.7 µM and 2.43 µM.
In turn, `Nc1ccc(S(N)(=O)=O)cc1` [SULFANILAMIDE] came in with a Ki in assay [1] of 32 µM.
With `CC1(C)O[C@@H]2[C@@H](CO[C@@]3(COS(N)(=O)=O)OC(C)(C)O[C@@H]23)O1` [TOPIRAMATE], the Ki in assay [1] is 0.063 µM; in assay [2] it was 0.03 µM.

For the origin of these results see ChEMBL document CHEMBL1141195, “Carbonic anhydrase inhibitors. The mitochondrial isozyme VB as a new target for sulfonamide and sulfamate inhibitors” (J Med Chem, 2005).
